# Test system: warts
# Conditions: human, in vivo
# From the text: In accordance with the method according to this invention, regular use of the α- and β-santalols is meant to mean application of the α- and β-santalols at least once a day to the body surface containing the viral-induced tumors (i.e., warts and Molluscom contagiosum tumors). A further embodiment of the method of this invention comprises washing the affected area of the body with the soap, rinsing the area, placing a small amount of the α- and β-santalols on the tumor to be treated and then gently rubbing to facilitate penetration. […] The subject was advised to rub 1 drop of the santalol mixture after washing their hand with regular soap and water. The subject was to use a loofah sponge to soften the surface of the warts prior to the application of the santalol mixture. […] A subject had three warts on their right and left index fingers for over five years. […] The subject was advised to wash the warts with soap and water using a loofah sponge to soften the surface of the warts, prior to applying one drop of the santalol mixture on the warts and rubbing gently. The treatment was to occur once a day. […] The subject was asked to wash the warts on their face with soap and water and then apply the santalols with a cotton swab. […] After the resolution of the facial warts, the subject's non-facial warts were treated with the santalols.
substance,measurement,value
α- and β-santalol [santalol mixture],"local side effects (redness, irritation or pain)",no evidence of any local side effects
same,"local skin irritation (redness, pain)",no evidence of any local skin irritation
same,"skin irritation, burning or redness at sites of application",no evidence
same,tolerability of treatment,well tolerated

# Reference: patent US6406706B1, “Use of α- and β-santalols major constituents of sandal wood oil, in the treatment of warts, skin blemishes and other viral-induced tumors” (Haque, Inc., priority 1996, dated 2002)
